# Laboratory results: PMC7160333, “Physiological Role of Glutamate Dehydrogenase in Cancer Cells” (Frontiers in Oncology, 2020)
# Read-outs that look alike come from different tables or passages of the source.
# Target: HepM GDH1 (Rattus norvegicus, UniProt P10860)
# Assay: GDH reverse (aminating) reaction activity in hepatoma mitochondria (HepM)
# Assay type: biochemical
# Settings: HepM; for K0.5 NH4+: reverse reaction, Hill equation; for Km: read-out: Km NH4+
# Protocol: Tightly coupled mitochondria were isolated from fed-rat liver (RLM) and AS-30D cells (HepM) as described elsewhere ([89], [90]). […] The resulting mitochondrial fractions were resuspended at 30 to 80 mg protein/mL in SHE buffer with 1 mM PMSF, 1 mM EDTA, 5 mM DTT, and 10% glycerol, and stored at −70°C until use for determination of enzyme activity and Western blotting.
# Chain of HepM GDH1 (P10860 54-558): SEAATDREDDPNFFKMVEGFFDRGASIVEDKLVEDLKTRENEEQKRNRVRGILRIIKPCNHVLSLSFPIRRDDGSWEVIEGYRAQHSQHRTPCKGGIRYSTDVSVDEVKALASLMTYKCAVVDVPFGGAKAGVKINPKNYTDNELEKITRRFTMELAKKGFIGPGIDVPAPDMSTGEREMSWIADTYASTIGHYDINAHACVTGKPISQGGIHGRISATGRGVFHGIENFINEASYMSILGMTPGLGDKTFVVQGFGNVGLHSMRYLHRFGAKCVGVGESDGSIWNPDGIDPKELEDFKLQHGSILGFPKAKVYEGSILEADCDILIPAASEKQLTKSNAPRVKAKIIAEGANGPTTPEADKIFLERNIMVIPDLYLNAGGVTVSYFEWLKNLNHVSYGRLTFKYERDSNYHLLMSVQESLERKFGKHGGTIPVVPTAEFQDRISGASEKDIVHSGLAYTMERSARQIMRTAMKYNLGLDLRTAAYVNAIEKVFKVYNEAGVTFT
compound,measurement,setting,value
"Cl.N [NH4Cl, Ammonium chloride]",K0.5 NH4+,"pH 7.2, 37°C",25.2 ± 8 mM
same,nH (Hill coefficient) for NH4+,"pH 7.2, Hill equation",2.12 ± 0.7
same,Km,"pH 7.2, MWC equation, GTP inhibition, saturating ADP",12 ± 2.6 mM
same,Km,"pH 7.2, MWC equation, with ADP",11.2 ± 3.5 mM
same,K0.5 NH4+,"pH 7.5, 37°C",26.8 ± 7.2 mM
same,nH (Hill coefficient) for NH4+,"pH 7.5, Hill equation",1.5 ± 0.7
same,Km,"pH 7.5, MWC equation, GTP inhibition, saturating ADP",10.3 ± 2.6 mM
same,Km,"pH 7.5, MWC equation, with ADP",9.3 ± 7.2 mM
